{"source": "PubChem BioAssay (NCI)", "note": "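Test compounds were applied to cells in 96-well plates for 48 hours at 5 doses. Here, GI50 denotes the concentration required for 50% inhibition of growth. At the TGI there is no net growth.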 *1 amine or outer side, *2 acyl side, *3 side chain or, on linkers, in order; H or OH if unused. Where a SMILES comes first, the peptide text is derived from it. Bridges are numbered along the chain shown (N, C = ends). [ ]: non-standard residue; d: D form. The star is where a group is joined. ξ: configuration not given here. Phe(3,5-F2) = N[C@@H](Cc1cc(F)cc(F)c1)C(=O)O; ξThr(3S) = C[C@H](O[*:3])C(N[*:1])C(=O)[*:2]; X25 = C[C@H]1OCCN([*:1])[C@@H]1C(=O)[*:2]; Phe(3-F) = N[C@@H](Cc1cccc(F)c1)C(=O)O; Pro(4R-Me) = C[C@H]1CN[C@H](C(=O)O)C1; aThr = C[C@H](O)[C@H](N)C(=O)O; X24 = O=S(=O)(F)Oc1ccc(N*)cc1; Pip = O=C(O)[C@@H]1CCCCN1; X8 = CCc1ccc(N*)c(F)c1; CO = O=C([*:1])[*:2]", "data": [{"system": "MDA-MB-468 breast", "experiment": "inhibition of tumour cell growth, NCI panel, 48 h", "units": {"GI50": "nM", "TGI": "nM"}, "values": [{"smiles": "O=C(NNc1nc2cc(F)ccc2n2c(CN3CCC(O)C3)ccc12)c1cnccn1", "note": "(centres undefined)", "GI50": 815, "TGI": 7630}, {"smiles": "CN(C)CCCOc1ccc(NC2=C(Cl)C(=O)C(Nc3ccc(OCCCN(C)C)cc3)=C(Cl)C2=O)cc1", "GI50": 360, "TGI": 1260}, {"smiles": "Cc1ccc(C(=O)Nc2ccc(Oc3cc4cnn(C)c4cc3-c3cn[nH]c3)c(F)c2)c(=O)n1-c1ccc(F)cc1", "GI50": 3200, "TGI": "> 100000"}, {"smiles": "S=C(Sc1ccc(Cl)cc1)Sc1ccc(Cl)cc1", "GI50": 2300, "TGI": 6900}, {"smiles": "CCN1C(=O)N(CC)C2C1NC(=S)N2/N=C/C=C/c1ccccc1", "note": "(centres undefined)", "GI50": 54.6}, {"smiles": "C/C(=N/NC(N)=S)c1ccc(Nc2nc(SCC(C)C)nc(-c3ccc(F)cc3)c2C#N)cc1", "GI50": 1060, "TGI": 7700}, {"smiles": "NC(=O)c1nc(-c2c(F)cccc2Cl)oc1Nc1ccc(C(=O)N2CCOCC2)cc1", "GI50": 4330, "TGI": 36700}, {"smiles": "COc1ccc(-c2cnc(-c3ccncc3-c3cccc(OC)c3)o2)cc1", "GI50": 178, "TGI": 10400}, {"smiles": "COc1cc([C@@H]2c3cc4c(cc3[C@H](SC(=N)N)[C@H]3COC(=O)[C@H]23)OCO4)cc(OC)c1OC", "GI50": 106, "TGI": 2570}, {"smiles": "Cc1cc(NC(=O)NC(=O)c2ccccc2NC(=O)CN(C)C)ccc1Oc1ncc(Br)cn1", "GI50": 3620, "TGI": "> 100000"}, {"smiles": "C[C@]12CCc3nc(Nc4ccc(O)cc4)sc3C1=CC[C@@H]1[C@@H]2CC[C@]2(C)/C(=N/NC(N)=S)CC[C@@H]12", "GI50": 1300, "TGI": 3020}, {"smiles": "CCN(CC)CCCC(Nc1c2ccc(Cl)cc2nc2ccc(OC)cc12)c1ccc(Cl)cc1", "note": "(centres undefined)", "GI50": 352, "TGI": 1190}, {"smiles": "N#Cc1cc(F)cc(Oc2ccc(S(=O)(=O)C(F)F)c3c2CC(F)(F)[C@H]3O)c1", "GI50": 16600, "TGI": 66900}, {"smiles": "O=C(Nc1ccc(-n2cc(-c3ccncc3)c(-c3ccc(O)c(Cl)c3)n2)cc1)Nc1cc(C(F)(F)F)cc(C(F)(F)F)c1", "GI50": 3280, "TGI": 13200}, {"smiles": "CCc1ccc(Oc2c(-c3ccc(OCc4ccc(Cl)cc4)cc3O)nn(C)c2C(F)(F)F)cc1", "GI50": 337, "TGI": 1620}, {"smiles": "COc1cccc(-c2cc(=O)c3cc(N4CCN(C)CC4)ccc3[nH]2)c1", "GI50": 6030, "TGI": "> 100000"}, {"smiles": "CN(C)C1C(=O)C(C(N)=O)=C(O)C2(O)C(=O)C3=C(O)c4c(O)cccc4C(C)(O)C3CC12.[Cl][Sb]([Cl])[Cl]", "note": "(centres undefined)", "GI50": 2500, "TGI": 8830}, {"smiles": "COC(=O)[C@]12CC[C@@H](C)[C@H](C)[C@@H]1C1=CC[C@@H]3[C@@]4(C)C(C=O)=C[C@@](C)(COS(C)(=O)=O)C4=CC[C@@]3(C)[C@]1(C)CC2", "GI50": 247, "TGI": 752}, {"smiles": "CC[n+]1c(-c2ccccc2)c2cc(N)ccc2c2ccc(N)cc21", "GI50": 160, "TGI": 609}, {"smiles": "CCc1ccc(NC(=O)N[C@@H](Cc2cccc(F)c2)C(=O)N[C@@H]2C(=O)N3CCC[C@H]3C(=O)N3CCCC[C@H]3C(=O)N[C@@H](C)C(=O)N3C[C@H](C)C[C@H]3C(=O)O[C@H]2C)c(F)c1", "note": "({X8-CO}-[Phe(3-F)][aThr]P[Pip]A[Pro(4R-Me)]; ester 2-C)", "GI50": 129, "TGI": 799}, {"smiles": "O=C(Nc1ccc(-n2cc(-c3ccncc3)c(-c3ccc(Cl)c(O)c3)n2)cc1)c1cc(C(F)(F)F)cc(C(F)(F)F)c1", "GI50": 2160, "TGI": 7600}, {"smiles": "COc1cc(OC)c(S(N)(=O)=O)cc1C(=O)/C=C/c1ccc(C)cc1", "GI50": 1960, "TGI": 7030}, {"smiles": "COC(=O)c1ccc(NC(N)=NCCC(C)(C)c2ccc(C(F)(F)F)cc2)nc1", "GI50": 1100, "TGI": 2790}, {"smiles": "C#COc1cccc(Nc2ncnc3cc(NC(=O)[C@@H](C)Cl)ccc23)c1", "GI50": 13500, "TGI": 50800}, {"smiles": "C/C(=C/CCC(C)[C@@H]1CC[C@]2(C)C3=C(CC[C@@]12C)[C@@]1(C)CCC(=O)C(C)(C)[C@@H]1CC3)C(=O)O", "note": "(some centres undefined)", "GI50": 1110, "TGI": 2710}, {"smiles": "CN(C)CCNC(=O)Nc1ccc(N(C)c2ccnc(Nc3ccc(CS(C)(=O)=O)cc3)n2)cc1", "GI50": "> 13300", "TGI": "> 25000"}, {"smiles": "CCOC(=O)[C@@H](C)C[C@H](Cc1ccccc1)NC(=O)c1csc([C@@H](C[C@H](C(C)C)N(C)C(=O)CNC(=O)[C@H]2CCCCN2C)OC(C)=O)n1", "GI50": 216, "TGI": 736}, {"smiles": "C[C@@H]1C[C@H]2C(=O)O[C@@H](C)C(NC(=O)[C@H](Cc3cc(F)cc(F)c3)NC(=O)Nc3ccc(OS(=O)(=O)F)cc3)C(=O)N3CCC[C@H]3C(=O)N3CCO[C@H](C)[C@H]3C(=O)N[C@@H](CO)C(=O)N2C1", "note": "(stereo partly drawn) ({X24-CO}-[Phe(3,5-F2)][ξThr(3S)]P[X25]S[Pro(4R-Me)]; ester 2-C)", "GI50": 416, "TGI": 5810}, {"smiles": "CC(=O)Nc1cccc(C#Cc2cncnc2Nc2ccc(OCc3cccc(F)c3)c(Cl)c2)c1", "GI50": 1140, "TGI": 5670}, {"smiles": "Cn1cc(-c2ccc3ncc(-c4ccc(CC(=O)Nc5cc(C(C)(C)C)nn5C)cc4)cc3c2)cn1", "GI50": 799, "TGI": "> 20000"}, {"smiles": "O=c1[nH]c2ccccc2cc1-c1nnc(Cc2ccccc2)o1", "GI50": 2290, "TGI": 9870}, {"smiles": "Nc1c(C(=O)Nc2ccccc2)sc2nc3c(cc12)C(=O)CCC3", "GI50": 161, "TGI": 611}, {"smiles": "O=c1[nH]c(=S)[nH]c(O)c1/C=C1\\C=Nc2ccccc21", "GI50": 14400, "TGI": 31100}, {"smiles": "OCc1ccc(-c2ccc(-c3ccc(CO)o3)o2)o1", "GI50": 764, "TGI": 3050}, {"smiles": "N#CN1CC[C@H](C(=O)Nc2ncc(-c3ccccc3)s2)C1", "GI50": 177, "TGI": 423}, {"smiles": "CO[C@H]1C(=O)[C@]2(C)[C@@H](OC)C[C@H]3OC[C@@]3(OC(C)=O)[C@H]2[C@H](OC(=O)c2ccccc2)[C@]2(O)C[C@H](OC(=O)[C@H](O)[C@@H](NC(=O)OC(C)(C)C)c3ccccc3)C(C)=C1C2(C)C", "GI50": "< 10", "TGI": 419}, {"smiles": "O=C(CI)NC(=O)NC(=O)NCc1ccccc1", "GI50": 2120, "TGI": 4660}, {"smiles": "O=C(Nc1nc2ccc(S(=O)(=O)Nc3ccc(C4(C(F)(F)F)CC4)cc3)cc2[nH]1)c1cnccn1", "GI50": 515, "TGI": 5740}, {"smiles": "CCOC(=O)c1cc(C(=O)c2ccc(OC)c(OC)c2)n2c1ccc1ccc3cccnc3c12", "GI50": 2830, "TGI": "> 100000"}, {"smiles": "Nc1ncnc2c1c(-c1ccc(Oc3ccccc3)cc1)nn2CC1SSCC1O", "note": "(centres undefined)", "GI50": 801, "TGI": 2020}, {"smiles": "O=C1Nc2ccc(-c3cccnc3)cc2/C1=C/c1cc(Br)c(O)c(Br)c1", "GI50": 6020, "TGI": 16100}, {"smiles": "Cc1ccc2ccc3c4ccccc4ccc3c2c1", "GI50": 16100, "TGI": 40400}, {"smiles": "Cc1ccccc1Nc1cc(O)c2c(=O)cc(-c3ccccc3)oc2c1", "GI50": 379, "TGI": 3030}, {"smiles": "COc1ccc([C@@]23Oc4cc(OC)cc(OC)c4[C@]2(O)[C@H](O)[C@H](C(=O)N(C)C)[C@H]3c2ccccc2)cc1", "GI50": 15.1, "TGI": 141}, {"smiles": "NC1=NC(c2ccccc2Cl)c2c(n[nH]c2N)N1", "note": "(centres undefined)", "GI50": 11100, "TGI": 99600}]}]}
